Holding throughout (assay): KINOMEscan kinase binding assay (Eurofins/DiscoveRx), % Ctrl
Holding throughout (conditions): 1 μM

For experiment [1], the target named is T1, kinases (Homo sapiens, UniProt P00519, Q252H).
T1 construct: purchased Eurofins/DiscoveRx; host or cells: E. coli BL21-derived host (T7 phage display) for most kinases; HEK-293 for the rest
The procedure, abridged:
(§1)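 Competition binding, 1 h RT: phage-tagged or HEK-293-expressed DNA-tagged kinase + immobilized ligand + compound. Eluate kinase by qPCR. % Ctrl = (test − positive ctrl)/(negative ctrl − positive ctrl) × 100; lower means stronger binding.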

For experiment [2], the target named is T2, kinases (Homo sapiens, UniProt P17948).
T2 construct: purchased Eurofins/DiscoveRx; host or cells: E. coli BL21-derived host (T7 phage display) for most kinases; HEK-293 for the rest
T2 sequence (P17948 27-1338): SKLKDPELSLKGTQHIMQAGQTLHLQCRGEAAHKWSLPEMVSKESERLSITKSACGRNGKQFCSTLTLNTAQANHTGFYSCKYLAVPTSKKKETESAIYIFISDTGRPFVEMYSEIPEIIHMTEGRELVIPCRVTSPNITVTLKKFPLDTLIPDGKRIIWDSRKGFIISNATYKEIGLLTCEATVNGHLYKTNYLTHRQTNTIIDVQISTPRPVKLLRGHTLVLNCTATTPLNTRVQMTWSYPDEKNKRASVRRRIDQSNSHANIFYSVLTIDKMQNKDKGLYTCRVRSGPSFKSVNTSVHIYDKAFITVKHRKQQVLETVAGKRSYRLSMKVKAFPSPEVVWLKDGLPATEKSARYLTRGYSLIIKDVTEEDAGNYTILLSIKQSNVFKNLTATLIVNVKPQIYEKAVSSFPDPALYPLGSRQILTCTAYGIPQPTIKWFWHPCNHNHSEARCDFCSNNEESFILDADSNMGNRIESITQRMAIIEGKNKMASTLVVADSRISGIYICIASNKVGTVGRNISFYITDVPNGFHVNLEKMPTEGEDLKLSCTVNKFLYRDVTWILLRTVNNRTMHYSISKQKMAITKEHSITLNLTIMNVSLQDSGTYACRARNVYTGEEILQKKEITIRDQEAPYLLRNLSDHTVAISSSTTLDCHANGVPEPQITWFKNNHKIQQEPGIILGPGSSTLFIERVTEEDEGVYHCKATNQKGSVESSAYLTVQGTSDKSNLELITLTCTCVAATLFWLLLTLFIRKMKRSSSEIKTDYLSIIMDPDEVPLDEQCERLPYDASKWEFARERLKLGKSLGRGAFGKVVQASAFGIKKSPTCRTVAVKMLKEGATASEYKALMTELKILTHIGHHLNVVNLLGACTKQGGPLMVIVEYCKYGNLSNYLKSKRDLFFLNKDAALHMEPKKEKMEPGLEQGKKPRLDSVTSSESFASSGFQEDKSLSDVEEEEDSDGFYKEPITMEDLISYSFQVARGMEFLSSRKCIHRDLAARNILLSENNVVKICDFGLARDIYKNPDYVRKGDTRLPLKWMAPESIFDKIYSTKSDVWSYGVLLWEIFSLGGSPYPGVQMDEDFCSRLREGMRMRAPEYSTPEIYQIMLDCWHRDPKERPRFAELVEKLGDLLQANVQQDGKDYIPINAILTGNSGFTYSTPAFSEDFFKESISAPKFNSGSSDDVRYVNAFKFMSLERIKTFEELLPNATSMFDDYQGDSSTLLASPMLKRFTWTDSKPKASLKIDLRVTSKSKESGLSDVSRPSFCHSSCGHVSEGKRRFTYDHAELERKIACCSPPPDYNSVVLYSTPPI
A digest of the protocol:
as §1

Experiment [3] deals with T3, kinases (Homo sapiens, UniProt P35916).
T3 construct: purchased Eurofins/DiscoveRx; host or cells: E. coli BL21-derived host (T7 phage display) for most kinases; HEK-293 for the rest
T3 sequence (P35916 25-1363): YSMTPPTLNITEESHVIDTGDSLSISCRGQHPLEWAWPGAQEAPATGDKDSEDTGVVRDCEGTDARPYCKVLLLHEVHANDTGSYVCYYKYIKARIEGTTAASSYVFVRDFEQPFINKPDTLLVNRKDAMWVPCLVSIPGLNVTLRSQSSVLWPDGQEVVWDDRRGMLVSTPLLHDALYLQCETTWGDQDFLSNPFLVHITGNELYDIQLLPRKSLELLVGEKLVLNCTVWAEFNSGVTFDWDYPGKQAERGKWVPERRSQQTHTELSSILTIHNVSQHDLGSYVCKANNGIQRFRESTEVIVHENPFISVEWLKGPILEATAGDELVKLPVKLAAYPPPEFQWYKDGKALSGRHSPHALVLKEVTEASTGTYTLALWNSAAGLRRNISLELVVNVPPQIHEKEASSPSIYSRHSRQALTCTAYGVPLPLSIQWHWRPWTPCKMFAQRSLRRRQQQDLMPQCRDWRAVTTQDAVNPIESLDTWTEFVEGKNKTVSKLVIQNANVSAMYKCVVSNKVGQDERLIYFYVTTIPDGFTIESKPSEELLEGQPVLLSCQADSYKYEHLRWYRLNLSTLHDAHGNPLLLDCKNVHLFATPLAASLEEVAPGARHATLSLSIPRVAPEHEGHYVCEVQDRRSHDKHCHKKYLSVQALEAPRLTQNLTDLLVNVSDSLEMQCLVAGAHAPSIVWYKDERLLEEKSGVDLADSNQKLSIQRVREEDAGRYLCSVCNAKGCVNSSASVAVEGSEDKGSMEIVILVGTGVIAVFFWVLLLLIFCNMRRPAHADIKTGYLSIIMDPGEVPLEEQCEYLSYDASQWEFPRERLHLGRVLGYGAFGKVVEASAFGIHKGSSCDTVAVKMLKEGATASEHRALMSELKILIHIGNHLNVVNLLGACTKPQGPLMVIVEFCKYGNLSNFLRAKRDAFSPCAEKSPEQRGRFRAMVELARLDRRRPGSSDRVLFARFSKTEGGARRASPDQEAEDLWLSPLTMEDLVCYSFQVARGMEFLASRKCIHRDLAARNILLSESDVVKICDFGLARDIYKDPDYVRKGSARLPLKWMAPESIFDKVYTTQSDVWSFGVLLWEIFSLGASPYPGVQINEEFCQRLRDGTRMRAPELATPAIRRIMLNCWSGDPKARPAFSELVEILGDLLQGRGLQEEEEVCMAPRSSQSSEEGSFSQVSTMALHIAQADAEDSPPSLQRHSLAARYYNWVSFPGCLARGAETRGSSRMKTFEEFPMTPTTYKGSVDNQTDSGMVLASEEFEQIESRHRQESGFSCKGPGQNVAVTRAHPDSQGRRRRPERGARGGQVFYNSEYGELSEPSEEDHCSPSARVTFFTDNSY
A digest of the protocol:
as §1

Experiment [4] concerns kinases. A digest of the protocol: as §1
For experiment [5], the target named is T4, kinases (Homo sapiens, UniProt P00533, L858R).
T4 construct: purchased Eurofins/DiscoveRx; host or cells: E. coli BL21-derived host (T7 phage display) for most kinases; HEK-293 for the rest
A digest of the protocol: as §1

The target in experiment [6] is T5, kinases (Homo sapiens, UniProt P00533, DEL746-750).
T5 construct: purchased Eurofins/DiscoveRx; host or cells: E. coli BL21-derived host (T7 phage display) for most kinases; HEK-293 for the rest
A digest of the protocol:
as §1

Experiment [7] has as its target T6, kinases (Homo sapiens, UniProt P00533, G719S).
T6 construct: purchased Eurofins/DiscoveRx; host or cells: E. coli BL21-derived host (T7 phage display) for most kinases; HEK-293 for the rest
A digest of the protocol:
as §1

The values below come from patent publication US20230257396A1, “MACROCYCLES AND THEIR USE” (BLOSSOMHILL THERAPEUTICS, INC., priority 2020, published 2023).

As to `Cc1nn(C)c2c1-c1ccc3c(c1)/C(=C/c1[nH]ccc1C(=O)N(C)CCCO2)C(=O)N3` [Ex. 150, [3a(4)Z]-9,14,16-trimethyl-10,11,13,14-tetrahydro-2H-1,17-(ethanediylidene)pyrazolo[4,3-m]dipyrrolo[3,2-f:3′,4′-i][1,4]oxazacyclopentadecine-3,8(5H,9H)-dione], the “% Ctrl, ABL1(Q252H)-nonphosphorylated” value at kinases [1] (target ABL1(Q252H)-nonphosphorylated) is 93 % Ctrl. Also, the “% Ctrl, ABL1(Q252H)-phosphorylated” value at kinases [1] (target ABL1(Q252H)-phosphorylated) was 100 % Ctrl. In addition, the “% Ctrl, FLT1” value at kinases [2] (target FLT1) stood at 100 % Ctrl. Also, on kinases [3] (target FLT4), the “% Ctrl, FLT4” value worked out at 95 % Ctrl. In addition, the “% Ctrl, EGFR(L747-E749del, A750P)” value with kinases [4] (target EGFR(L747-E749del, A750P)) was 94 % Ctrl. In addition, in the experiment with kinases [4] (target EGFR(L747-S752del, P753S)), the “% Ctrl, EGFR(L747-S752del, P753S)” value was found to be 100 % Ctrl. In addition, in the experiment on kinases [4] (target EGFR(L747-T751del, Sins)), the “% Ctrl, EGFR(L747-T751del, Sins)” value is 94 % Ctrl. Also, the “% Ctrl, FLT3(ITD)” value with kinases [4] (target FLT3(ITD)) worked out at 72 % Ctrl. For the same molecule, the “% Ctrl, FLT3(ITD, D835V)” value with kinases [4] (target FLT3(ITD, D835V)) amounted to 35 % Ctrl. Further, the “% Ctrl, FLT3(ITD, F691L)” value in the experiment on kinases [4] (target FLT3(ITD, F691L)) is listed as 59 % Ctrl. Also, the “% Ctrl, EGFR(L858R)” value at kinases [5] (target EGFR(L858R)) stood at 77 % Ctrl. At kinases [6] (target EGFR(E746-A750del)), the “% Ctrl, EGFR(E746-A750del)” value is reported as 98 % Ctrl. In addition, at kinases [7] (target EGFR(G719S)), the “% Ctrl, EGFR(G719S)” value worked out at 8 % Ctrl.
On to `Cc1cc2c([nH]1)/C=C1\C(=O)Nc3cnc(nc31)N(C)CCCOCCN(C)C2=O` [Ex.71, [17a(18)Z]-2,5,12-trimethyl-6,7,9,10,11,12-hexahydro-1H-13,15-(azenometheno)dipyrrolo[3,2-f:3′,4′-i][1,4,11,13]oxatriazacyclohexadecine-4,17(5H,16H)-dione], for which the “% Ctrl, ABL1(Q252H)-nonphosphorylated” value on kinases [1] (ABL1(Q252H)-nonphosphorylated) is 97 % Ctrl. At kinases [1] (ABL1(Q252H)-phosphorylated), the “% Ctrl, ABL1(Q252H)-phosphorylated” value was found to be 100 % Ctrl. In addition, the “% Ctrl, FLT1” value on kinases [2] (FLT1) was 98 % Ctrl. On kinases [3] (FLT4), the “% Ctrl, FLT4” value was found to be 95 % Ctrl. Also, in the experiment with kinases [4] (EGFR(L747-E749del, A750P)), the “% Ctrl, EGFR(L747-E749del, A750P)” value came out at 92 % Ctrl. In addition, the “% Ctrl, EGFR(L747-S752del, P753S)” value with kinases [4] (EGFR(L747-S752del, P753S)) is 100 % Ctrl. Also, the “% Ctrl, EGFR(L747-T751del, Sins)” value in the experiment with kinases [4] (EGFR(L747-T751del, Sins)) is 67 % Ctrl. The “% Ctrl, FLT3(ITD)” value with kinases [4] (FLT3(ITD)) is listed as 91 % Ctrl. In addition, the “% Ctrl, FLT3(ITD, D835V)” value with kinases [4] (FLT3(ITD, D835V)) is 100 % Ctrl. The “% Ctrl, FLT3(ITD, F691L)” value with kinases [4] (FLT3(ITD, F691L)) was 100 % Ctrl. Besides, the “% Ctrl, EGFR(L858R)” value at kinases [5] (EGFR(L858R)) turned out to be 9 % Ctrl. Also, on kinases [6] (EGFR(E746-A750del)), the “% Ctrl, EGFR(E746-A750del)” value was 100 % Ctrl. In addition, the “% Ctrl, EGFR(G719S)” value on kinases [7] (EGFR(G719S)) turned out to be 76 % Ctrl.
With `CNC(=O)[C@H]1CN(C)C(=O)c2cc(C)[nH]c2/C=C2\C(=O)Nc3cc(Cl)c(cc32)OCCO1` [Ex. 135, [7R,16a(17)Z]-19-chloro-N,2,5-trimethyl-4,16-dioxo-4,5,6,7,9,10,15,16-octahydro-1H-12,14-(ethanediylidene)dipyrrolo[3,2-i:3′,4′-l][1,4,7]dioxazacyclopentadecine-7-carboxamide], the “% Ctrl, ABL1(Q252H)-nonphosphorylated” value on kinases [1] (ABL1(Q252H)-nonphosphorylated) is 43 % Ctrl. The “% Ctrl, ABL1(Q252H)-phosphorylated” value at kinases [1] (ABL1(Q252H)-phosphorylated) amounted to 47 % Ctrl. For the same molecule, at kinases [2] (FLT1), the “% Ctrl, FLT1” value is recorded as 85 % Ctrl. In addition, the “% Ctrl, FLT4” value at kinases [3] (FLT4) came to 100 % Ctrl. The “% Ctrl, EGFR(L747-E749del, A750P)” value in the experiment on kinases [4] (EGFR(L747-E749del, A750P)) worked out at 82 % Ctrl. The “% Ctrl, EGFR(L747-S752del, P753S)” value in the experiment with kinases [4] (EGFR(L747-S752del, P753S)) came to 80 % Ctrl. Moreover, the “% Ctrl, EGFR(L747-T751del, Sins)” value with kinases [4] (EGFR(L747-T751del, Sins)) turned out to be 98 % Ctrl. Besides, in the experiment with kinases [4] (FLT3(ITD)), the “% Ctrl, FLT3(ITD)” value was determined as 52 % Ctrl. Besides, the “% Ctrl, FLT3(ITD, D835V)” value in the experiment on kinases [4] (FLT3(ITD, D835V)) is 11 % Ctrl. Also, in the experiment with kinases [4] (FLT3(ITD, F691L)), the “% Ctrl, FLT3(ITD, F691L)” value is 25 % Ctrl. Moreover, the “% Ctrl, EGFR(L858R)” value at kinases [5] (EGFR(L858R)) is listed as 93 % Ctrl. The “% Ctrl, EGFR(E746-A750del)” value on kinases [6] (EGFR(E746-A750del)) amounted to 99 % Ctrl. Further, on kinases [7] (EGFR(G719S)), the “% Ctrl, EGFR(G719S)” value is 92 % Ctrl.
Regarding `Cc1cc2c([nH]1)/C=C1\C(=O)Nc3ccc(cc31)-c1cnn(C)c1COCCN(C)C2=O` [Ex. 124, [3a(4)Z]-6,9,14-trimethyl-10,11,13,14-tetrahydro-2H-1,17-(ethanediylidene)pyrazolo[4,3-m]dipyrrolo[3,2-f:3′,4′-i][1,4]oxazacyclopentadecine-3,8(5H,9H)-dione], the “% Ctrl, ABL1(Q252H)-nonphosphorylated” value on kinases [1] (ABL1(Q252H)-nonphosphorylated) is recorded as 0 % Ctrl. The “% Ctrl, ABL1(Q252H)-phosphorylated” value at kinases [1] (ABL1(Q252H)-phosphorylated) came to 0 % Ctrl. Besides, the “% Ctrl, FLT1” value on kinases [2] (FLT1) was 13 % Ctrl. In addition, the “% Ctrl, FLT4” value on kinases [3] (FLT4) amounted to 0.15 % Ctrl. Besides, the “% Ctrl, EGFR(L747-E749del, A750P)” value with kinases [4] (EGFR(L747-E749del, A750P)) is given as 25 % Ctrl. The “% Ctrl, EGFR(L747-S752del, P753S)” value in the experiment with kinases [4] (EGFR(L747-S752del, P753S)) worked out at 37 % Ctrl. Also, the “% Ctrl, EGFR(L747-T751del, Sins)” value in the experiment on kinases [4] (EGFR(L747-T751del, Sins)) came to 57 % Ctrl. The “% Ctrl, FLT3(ITD)” value in the experiment on kinases [4] (FLT3(ITD)) is given as 0 % Ctrl. Moreover, the “% Ctrl, FLT3(ITD, D835V)” value with kinases [4] (FLT3(ITD, D835V)) worked out at 0 % Ctrl. Moreover, the “% Ctrl, FLT3(ITD, F691L)” value with kinases [4] (FLT3(ITD, F691L)) turned out to be 0.65 % Ctrl. Moreover, the “% Ctrl, EGFR(L858R)” value on kinases [5] (EGFR(L858R)) turned out to be 58 % Ctrl. Besides, at kinases [6] (EGFR(E746-A750del)), the “% Ctrl, EGFR(E746-A750del)” value was 15 % Ctrl. Moreover, the “% Ctrl, EGFR(G719S)” value at kinases [7] (EGFR(G719S)) was determined as 97 % Ctrl.
